Laboratory results as given in US6528275B1, “Substrates and inhibitors of proteolytic enzymes” (Peptide Therapeutics Limited, priority 1996, dated 2003).
Non-standard residues stand in square brackets, D forms with d. Residues, ends and D or L forms follow the SMILES beside them. Tyr(3-NO2) = N[C@@H](Cc1ccc(O)c([N+](=O)[O-])c1)C(=O)O; 2Nal = N[C@@H](Cc1ccc2ccccc2c1)C(=O)O; Hyp = O=C(O)[C@@H]1C[C@@H](O)CN1; 3Pal = N[C@@H](Cc1cccnc1)C(=O)O; Tic = O=C(O)[C@@H]1Cc2ccccc2CN1; hLeu = CC(C)CC[C@H](N)C(=O)O; dNle = CCCC[C@@H](N)C(=O)O; Ac6c = NC1(C(=O)O)CCCCC1; Nle = CCCC[C@H](N)C(=O)O; Ac5c = NC1(C(=O)O)CCCC1; 2Abz = Nc1ccccc1C(=O)O

Target: T1, Der pI (Dermatophagoides pteronyssinus, UniProt P08176)
T1 construct: tissue SmithKline-Beecham, U.K (crude mite extract); host or cells: crude house dust mite extract
T1 sequence (P08176 99-320): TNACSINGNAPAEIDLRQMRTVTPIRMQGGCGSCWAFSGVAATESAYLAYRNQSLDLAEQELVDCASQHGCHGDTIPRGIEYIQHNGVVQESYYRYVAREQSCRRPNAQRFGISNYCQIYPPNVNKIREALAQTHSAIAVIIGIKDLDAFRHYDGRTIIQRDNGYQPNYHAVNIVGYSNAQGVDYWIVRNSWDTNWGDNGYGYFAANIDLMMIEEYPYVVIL
Assay: Der pI substrate assay with FRET peptides (fluorescence, Km, kcat/Km)
Type: biochemical, house dust mite
Design: key: NS indicates that the peptide was not hydrolysed by Der pI.; NM indicated that the peptide was a substrate for Der pI, but the Km was not measured.; NM^a indicates that the peptide was a substrate for Der pI, and its cleavage was followed by HPLC-MS showing hydrolysis to occur between-Nle-Ser-
Details: purified Der pI; peptides SEQ ID Nos. 1-76
Experimental: Using the general techniques described above, the following compounds were prepared and assayed as potential substrates against Der pI purified as described above.
Each mixture of 20 compounds in the libraries of the apparatus described herein was screened at a concentration of 1.0 μM per compound in an assay against the cysteinyl protease Der pI.
Plate assays were carried out in 96 well plate format, using 0.1 ug of Der pI per 100 μL assay volume in each well and using 20 μM of the substrate. All assays were performed in Assay Buffer (AB; 50 mM potassium phosphate, pH 8.25 containing 1 mM ethylenediaminetetraacetic acid (EDTA) and 1 mM dithiothreitol (DTT). The Der pI enzyme is pre-activated by addition of DTT and this in incubated at room temperature for 5 min. prior to initiation of the assay. As an example for the screening methodology, each well contains a 5 μL of a 20 μM solution of the test compound in DMSO, 10 μL of a 200 μM aqueous solution of the substrate, 2, and 85 μL of Der pI in AB is added to initiate the reaction. Enzyme activity is monitored by fluorescence using 320 nm for excitation and 420 nm for the emission wavelengths using a Labsystems Fluroskan Ascent machine. Kinetic measurements were carried out using a Hitachi F-4500 Fluorescence Spectrophotometer.

## CC(C)CC[C@H](NC(=O)[C@H](C)NC(=O)C1(NC(=O)c2ccccc2N)CCCCC1)C(=O)N[C@@H](CO)C(=O)N[C@@H](Cc1ccc(O)c([N+](=O)[O-])c1)C(=O)N[C@@H](CC(=O)O)C(N)=O [Abz-ACH-Ala-hLeu-Ser-Tyr(NO2)-Asp-NH2] (H-[2Abz][Ac6c]A[hLeu]S[Tyr(3-NO2)]D-NH2)
  substrate or not substrate for Der pI (symbols in Measured Km): NS

## CCCC[C@H](NC(=O)[C@H](C)NC(=O)c1ccccc1N)C(=O)N[C@@H](CO)C(=O)N[C@@H](Cc1ccc(O)c([N+](=O)[O-])c1)C(=O)N[C@@H](CC(=O)O)C(N)=O [Abz-Ala-Nle-Ser-Tyr(NO2)-Asp-NH2] (H-[2Abz]A[Nle]S[Tyr(3-NO2)]D-NH2)
  substrate or not substrate for Der pI (symbols in Measured Km): NM

## CC(C)CC[C@H](NC(=O)[C@H](C)NC(=O)[C@H](NC(=O)c1ccccc1N)C(C)C)C(=O)N[C@@H](CO)C(=O)N[C@@H](Cc1ccc(O)c([N+](=O)[O-])c1)C(=O)N[C@@H](CC(=O)O)C(N)=O [Abz-DVal-Ala-hLeu-Ser-Tyr(NO2)-Asp-NH2] (H-[2Abz][dV]A[hLeu]S[Tyr(3-NO2)]D-NH2)
  substrate or not substrate for Der pI (symbols in Measured Km): NS

## CCCC[C@H](NC(=O)[C@H](C)NC(=O)[C@@H](NC(=O)[C@@H]1C[C@@H](O)CN1C(=O)c1ccccc1N)C(C)C)C(=O)N[C@@H](CO)C(=O)N[C@@H](Cc1ccc(O)c([N+](=O)[O-])c1)C(=O)N[C@@H](CC(=O)O)C(N)=O [Abz-Hyp-Val-Ala-Nle-Ser-Tyr(NO2)-Asp-NH2] (H-[2Abz][Hyp]VA[Nle]S[Tyr(3-NO2)]D-NH2)
  substrate or not substrate for Der pI (symbols in Measured Km): NS

## CCCC[C@H](NC(=O)[C@H](C)NC(=O)[C@@H](NC(=O)[C@H](CC(C)C)NC(=O)c1ccccc1N)C(C)C)C(=O)N[C@@H](CO)C(=O)N[C@@H](Cc1ccc(O)c([N+](=O)[O-])c1)C(=O)N[C@@H](CC(=O)O)C(N)=O [Abz-Leu-Val-Ala-Nle-Ser-Tyr(NO2)-Asp-NH2] (H-[2Abz]LVA[Nle]S[Tyr(3-NO2)]D-NH2)
  substrate or not substrate for Der pI (symbols in Measured Km): NM

## CCCC[C@H](NC(=O)c1ccccc1N)C(=O)N[C@@H](CO)C(=O)N[C@@H](Cc1ccc(O)c([N+](=O)[O-])c1)C(=O)N[C@@H](CC(=O)O)C(N)=O [Abz-Nle-Ser-Tyr(NO2)-Asp-NH2] (H-[2Abz][Nle]S[Tyr(3-NO2)]D-NH2)
  substrate or not substrate for Der pI (symbols in Measured Km): NS

## CCCC[C@H](NC(=O)[C@H](C)NC(=O)[C@@H](NC(=O)[C@H](Cc1ccccc1)NC(=O)c1ccccc1N)C(C)C)C(=O)N[C@@H](CO)C(=O)N[C@@H](Cc1ccc(O)c([N+](=O)[O-])c1)C(=O)N[C@@H](CC(=O)O)C(N)=O [Abz-Phe-Val-Ala-Nle-Ser-Tyr(NO2)-Asp-NH2] (H-[2Abz]FVA[Nle]S[Tyr(3-NO2)]D-NH2)
  substrate or not substrate for Der pI (symbols in Measured Km): NM

## CC(C)CC[C@H](NC(=O)[C@H](C)NC(=O)[C@@H]1Cc2ccccc2CN1C(=O)c1ccccc1N)C(=O)N[C@@H](CO)C(=O)N[C@@H](Cc1ccc(O)c([N+](=O)[O-])c1)C(=O)N[C@@H](CC(=O)O)C(N)=O [Abz-Tic-Ala-hLeu-Ser-Tyr(NO2)-Asp-NH2] (H-[2Abz][Tic]A[hLeu]S[Tyr(3-NO2)]D-NH2)
  substrate or not substrate for Der pI (symbols in Measured Km): NS

## CCCC[C@H](NC(=O)[C@H](C)NC(=O)[C@@H](NC(=O)[C@H](Cc1ccc(O)cc1)NC(=O)c1ccccc1N)C(C)C)C(=O)N[C@@H](CO)C(=O)N[C@@H](Cc1ccc(O)c([N+](=O)[O-])c1)C(=O)N[C@@H](CC(=O)O)C(N)=O [Abz-Tyr-Val-Ala-Nle-Ser-Tyr(NO2)-Asp-NH2] (H-[2Abz]YVA[Nle]S[Tyr(3-NO2)]D-NH2)
  substrate or not substrate for Der pI (symbols in Measured Km): NM

## CC(C)CC[C@H](NC(=O)[C@@H](CCC(N)=O)NC(=O)[C@@H](NC(=O)c1ccccc1N)C(C)C)C(=O)N[C@@H](CO)C(=O)N[C@@H](Cc1ccc(O)c([N+](=O)[O-])c1)C(=O)N[C@@H](CC(=O)O)C(N)=O [Abz-Va1-DGln-hLeu-Ser-Tyr(NO2)-Asp-NH2] (H-[2Abz]V[dQ][hLeu]S[Tyr(3-NO2)]D-NH2)
  substrate or not substrate for Der pI (symbols in Measured Km): NS

## CC(C)CC[C@H](NC(=O)[C@H](Cc1ccc2ccccc2c1)NC(=O)[C@@H](NC(=O)c1ccccc1N)C(C)C)C(=O)N[C@@H](CO)C(=O)N[C@@H](Cc1ccc(O)c([N+](=O)[O-])c1)C(=O)N[C@@H](CC(=O)O)C(N)=O [Abz-Val-2Nal-hLeu-Ser-Tyr(NO2)-Asp-NH2] (H-[2Abz]V[2Nal][hLeu]S[Tyr(3-NO2)]D-NH2)
  substrate or not substrate for Der pI (symbols in Measured Km): NS

## CC(C)CC[C@H](NC(=O)[C@H](Cc1cccnc1)NC(=O)[C@@H](NC(=O)c1ccccc1N)C(C)C)C(=O)N[C@@H](CO)C(=O)N[C@@H](Cc1ccc(O)c([N+](=O)[O-])c1)C(=O)N[C@@H](CC(=O)O)C(N)=O [Abz-Val-3pyr-hLeu-Ser-Tyr(NO2)-Asp-NH2] (H-[2Abz]V[3Pal][hLeu]S[Tyr(3-NO2)]D-NH2)
  substrate or not substrate for Der pI (symbols in Measured Km): NS

## CC(C)CC[C@H](NC(=O)C1(NC(=O)[C@@H](NC(=O)c2ccccc2N)C(C)C)CCCCC1)C(=O)N[C@@H](CO)C(=O)N[C@@H](Cc1ccc(O)c([N+](=O)[O-])c1)C(=O)N[C@@H](CC(=O)O)C(N)=O [Abz-Val-ACH-hLeu-Ser-Tyr(NO2)-Asp-NH2] (H-[2Abz]V[Ac6c][hLeu]S[Tyr(3-NO2)]D-NH2)
  substrate or not substrate for Der pI (symbols in Measured Km): NS

## CC(C)CC[C@H](NC(=O)C1(NC(=O)[C@@H](NC(=O)c2ccccc2N)C(C)C)CCCC1)C(=O)N[C@@H](CO)C(=O)N[C@@H](Cc1ccc(O)c([N+](=O)[O-])c1)C(=O)N[C@@H](CC(=O)O)C(N)=O [Abz-Val-ACP-hLeu-Ser-Tyr(NO2)-Asp-NH2] (H-[2Abz]V[Ac5c][hLeu]S[Tyr(3-NO2)]D-NH2)
  substrate or not substrate for Der pI (symbols in Measured Km): NS

## CC(C)[C@H](NC(=O)c1ccccc1N)C(=O)N[C@@H](C)C(=O)NC1(C(=O)N[C@@H](CO)C(=O)N[C@@H](Cc2ccc(O)c([N+](=O)[O-])c2)C(=O)N[C@@H](CC(=O)O)C(N)=O)CCCCC1 [Abz-Val-Ala-ACH-Ser-Tyr(NO2)-Asp-NH2] (H-[2Abz]VA[Ac6c]S[Tyr(3-NO2)]D-NH2)
  substrate or not substrate for Der pI (symbols in Measured Km): NS

## CC(C)[C@H](NC(=O)c1ccccc1N)C(=O)N[C@@H](C)C(=O)NC1(C(=O)N[C@@H](CO)C(=O)N[C@@H](Cc2ccc(O)c([N+](=O)[O-])c2)C(=O)N[C@@H](CC(=O)O)C(N)=O)CCCC1 [Abz-Val-Ala-ACP-Ser-Tyr(NO2)-Asp-NH2] (H-[2Abz]VA[Ac5c]S[Tyr(3-NO2)]D-NH2)
  substrate or not substrate for Der pI (symbols in Measured Km): NS

## CCCC[C@@H](NC(=O)[C@H](C)NC(=O)[C@@H](NC(=O)c1ccccc1N)C(C)C)C(=O)N[C@@H](CO)C(=O)N[C@@H](Cc1ccc(O)c([N+](=O)[O-])c1)C(=O)N[C@@H](CC(=O)O)C(N)=O [Abz-Val-Ala-DNle-Ser-Tyr(NO2)-Asp-NH2] (H-[2Abz]VA[dNle]S[Tyr(3-NO2)]D-NH2)
  substrate or not substrate for Der pI (symbols in Measured Km): NS

## CC(C)[C@H](NC(=O)c1ccccc1N)C(=O)N[C@@H](C)C(=O)N1C[C@H](O)C[C@H]1C(=O)N[C@@H](CO)C(=O)N[C@@H](Cc1ccc(O)c([N+](=O)[O-])c1)C(=O)N[C@@H](CC(=O)O)C(N)=O [Abz-Val-Ala-Hyp-Ser-Tyr(NO2)-Asp-NH2] (H-[2Abz]VA[Hyp]S[Tyr(3-NO2)]D-NH2)
  substrate or not substrate for Der pI (symbols in Measured Km): NS

## CCCC[C@H](NC(=O)[C@H](C)NC(=O)[C@@H](NC(=O)c1ccccc1N)C(C)C)C(=O)N[C@@H](CO)C(=O)N[C@@H](C)C(=O)N[C@@H](CC(=O)O)C(N)=O [Abz-Val-Ala-Nle-Ser-Ala-Asp-NH2] (H-[2Abz]VA[Nle]SAD-NH2)
  substrate or not substrate for Der pI (symbols in Measured Km): NM

## CCCC[C@H](NC(=O)[C@H](C)NC(=O)[C@@H](NC(=O)c1ccccc1N)C(C)C)C(=O)N[C@@H](CO)C(=O)N[C@@H](CCCCN)C(=O)N[C@@H](CC(=O)O)C(N)=O [Abz-Val-Ala-Nle-Ser-Lys-Asp-NH2] (H-[2Abz]VA[Nle]SKD-NH2)
  substrate or not substrate for Der pI (symbols in Measured Km): NM

## CCCC[C@H](NC(=O)[C@H](C)NC(=O)[C@@H](NC(=O)c1ccccc1N)C(C)C)C(=O)N[C@@H](CO)C(N)=O [Abz-Val-Ala-Nle-Ser-NH2] (H-[2Abz]VA[Nle]S-NH2)
  substrate or not substrate for Der pI (symbols in Measured Km): NM

## CCCC[C@H](NC(=O)[C@H](C)NC(=O)[C@@H](NC(=O)c1ccccc1N)C(C)C)C(=O)N[C@@H](CO)C(=O)N[C@@H](Cc1ccccc1)C(=O)N[C@@H](CC(=O)O)C(N)=O [Abz-Val-Ala-Nle-Ser-Phe-Asp-NH2] (H-[2Abz]VA[Nle]SFD-NH2)
  substrate or not substrate for Der pI (symbols in Measured Km): NM

## CCCC[C@H](NC(=O)[C@H](C)NC(=O)[C@@H](NC(=O)c1ccccc1N)C(C)C)C(=O)N[C@@H](CO)C(=O)N[C@@H](Cc1ccc(O)c([N+](=O)[O-])c1)C(N)=O [Abz-Val-Ala-Nle-Ser-Tyr(NO2)-NH2] (H-[2Abz]VA[Nle]S[Tyr(3-NO2)]-NH2)
  substrate or not substrate for Der pI (symbols in Measured Km): NM
